Assay results as given in patent US6346535B1, “Fungicidal mixtures” (American Cyanamid Company, priority 1999, dated 2002).

Key:
Type in all cases: in vivo
[1] = test system: Blumeria graminis on wheat; assay: Greenhouse trial, 4 day curative, Blumeria graminis on wheat; conditions: compound alone
Procedure: The trials are carried out under greenhouse (Examples 1 to 18) or field conditions (Example 19) in residual or curative applications. The fungicides are applied in single treatments, or in a combination comprising a benzophenone of formula I and a compound selected from (A) through (E) as defined above. The compounds are applied in form of an aqueous spray mix obtained from a concentrated formulation or the technical material. […] Seed is planted in 6 cm diameter plastic pots and maintained in the greenhouse. […] When the primary leaf is fully expanded (in the case of cereals) or several leaves are present (in the case of dicots), formulated test compounds are sprayed with a three nozzle overhead fungicide sprayer to near run-off. Alternatively, a single nozzle overhead track sprayer is used for application of the compounds to cereals at a rate of 200 liters/ha (l/ha). Plants are then allowed to air-dry. […] Inoculation precedes treatment in the case of curative evaluations and follows treatment in case of residual evaluations. For inoculation of powdery mildew disease, plants are set up on greenhouse benches with bottom watering mats and inoculated by dusting them with conidia from infected plants. Between inoculation and treatment for curative evaluations and between treatment and inoculation for residual evaluations, plants are maintained in the greenhouse with bottom watering. For inoculation of non-powdery mildew diseases, an aqueous spore suspension of the pathogen is applied to the plant and the plants are kept 1-2 days in a moist infection chamber before being returned to the greenhouse where they are maintained by bottom watering. […] Disease on the foliage as percent leaf area with disease symptoms/signs is evaluated about 7 days after inoculation. In the case of wheat, the tips and bases of the leaves are excluded from the evaluation. [formula] […] Compounds are dissolved in acetone prior to addition of the water; the Tween 20 can be added through either the acetone or the water. Dilutions are made using the solvent/surfactant system. Formulated compounds are prepared using deionized water. Assessments of the diseases took place at the indicated day after the application of the compounds. Per cent infected leaf area infected was evaluated. […] Synergy of a fungicide mixture was determined by comparing the actual (observed) fungicidal activity of the mixture to the expected fungicidal activity of the mixture as calculated using the COLBY formula given hereinabove.

[2] = test system: Blumeria graminis on wheat; assay: Greenhouse trial, 3 day protective, Blumeria graminis on wheat; conditions: Table V, compound alone
Description: The fungicides are applied in single treatments, or in a combination comprising a benzophenone of formula I and a compound selected from (A) through (E) as defined above. The compounds are applied in form of an aqueous spray mix obtained from a concentrated formulation or the technical material.
1. Seed is planted in 6 cm diameter plastic pots and maintained in the greenhouse.
2. When the primary leaf is fully expanded (in the case of cereals) or several leaves are present (in the case of dicots), formulated test compounds are sprayed with a three nozzle overhead fungicide sprayer to near run-off. Alternatively, a single nozzle overhead track sprayer is used for application of the compounds to cereals at a rate of 200 liters/ha (l/ha). Plants are then allowed to air-dry.
3. Inoculation precedes treatment in the case of curative evaluations and follows treatment in case of residual evaluations. For inoculation of powdery mildew disease, plants are set up on greenhouse benches with bottom watering mats and inoculated by dusting them with conidia from infected plants. Between inoculation and treatment for curative evaluations and between treatment and inoculation for residual evaluations, plants are maintained in the greenhouse with bottom watering. For inoculation of non-powdery mildew diseases, an aqueous spore suspension of the pathogen is applied to the plant and the plants are kept 1-2 days in a moist infection chamber before being returned to the greenhouse where they are maintained by bottom watering.
4. Disease on the foliage as percent leaf area with disease symptoms/signs is evaluated about 7 days after inoculation. In the case of wheat, the tips and bases of the leaves are excluded from the evaluation. [formula]
1. Technical compounds are formulated in a solvent/surfactant system consisting of 5% acetone and 0.05% Tween 20 in deionized water. Compounds are dissolved in acetone prior to addition of the water; the Tween 20 can be added through either the acetone or the water. Dilutions are made using the solvent/surfactant system. Formulated compounds are prepared using deionized water.
Assessments of the diseases took place at the indicated day after the application of the compounds. Per cent infected leaf area infected was evaluated. The efficacy of the compounds/compounds mixtures to control the diseases was calculated by using the formula given above under item 4: […]
Synergy of a fungicide mixture was determined by comparing the actual (observed) fungicidal activity of the mixture to the expected fungicidal activity of the mixture as calculated using the COLBY formula given hereinabove.
Fungicidal Efficacy of the Mixture of BP-5+Triforine (3 Day Protective) Against Blumeria graminis on Wheat
Fungicidal Efficacy of the Mixture of BP-1+Triadimefon (3 Day Protective) Against Blumeria graminis on Wheat

Cercospora beticola = assay: Field trial against the sugar beet disease Cercospora beticola; conditions: Table XIX, compound alone, dose rate 250 g/ha
Procedure: The trials are carried out under greenhouse (Examples 1 to 18) or field conditions (Example 19) in residual or curative applications. The fungicides are applied in single treatments, or in a combination comprising a benzophenone of formula I and a compound selected from (A) through (E) as defined above. The compounds are applied in form of an aqueous spray mix obtained from a concentrated formulation or the technical material. For the field study formulated benzophenones BP-1 through BP-4 and formulated compounds from (A) through (E) were used. The compounds are applied according to good agricultural practice in form of an aqueous spray mix obtained from concentrated formulation or the technical material at a rate of 400 l/ha. The disease control is evaluated according to the formula given for the greenhouse tests. Fungicidal Efficacy of the Mixture of BP-1+Metconazole in the Field Against the Sugar Beet Disease Cercospora beticola The tank mix was obtained from a SC formulation containing 100 g of BP-1 per liter and a SL formulation containing 60 g of metconazole per liter.

CCCCOc1c(OC)c(OC)cc(C)c1C(=O)c1c(Cl)cccc1Cl [BP-1, 6′-butoxy-2,6-dichloro-4′,5′-dimethoxy-2′-methylbenzophenone]
Observed Efficacy ([1]; Table I, dose rate 25 ppm): 1% | Observed Efficacy ([1]; Table I, dose rate 125 ppm): 42% | Observed Efficacy ([1]; Table II, dose rate 25 ppm): 1% | Observed Efficacy ([1]; Table II, dose rate 125 ppm): 42% | Observed Efficacy ([1]; Table III, dose rate 25 ppm): 1% | Observed Efficacy ([1]; Table III, dose rate 125 ppm): 42% | Observed Efficacy ([2]; dose rate 1 ppm): 44% | Observed Efficacy ([2]; dose rate 5 ppm): 78% | Observed Efficacy (Cercospora beticola): 42.5%
